In patent US8865734B2 (priority 2010, dated 2014):
≈ marks a conversion by molar mass, not a printed value. Structures can show the parent of a compound that is named as a salt.

Assays:
M. tuberculosis H37Rv = test: In vivo activity in a murine model of acute tuberculosis infection; design: species or system BalbC mice; conditions: 4 weeks of treatment
Description: The effect of compounds 177 and 185 on the bacterial load of TB-infected mice was compared to that of the reference compound Isoniazid (INH). 8-week old female BalbC mice were infected with 6×10^5 M. tuberculosis H37Rv via intranasal instillation. Mice were sacrificed at day 1 to control the number of CFU in the lungs. In the acute model of infection, mice were treated for 4 weeks, starting at day 1. Compounds were freshly dissolved in a 0.5% methylcellulose solution and administered by oral gavage 5 times/week. Bacterial load was assessed in lungs and spleen after homogenizing the organs in 1×PBS. Serial dilutions of organs homogenates were spread on Middlebrook 7H11 plates and CFU were determined after 3 weeks incubation at 37° C. under 5% CO2.

[1] = system: M. tuberculosis drug sensitive strain (lab strain H37Rv); test: MIC by the Alamar blue method, drug sensitive strain; type: cell-based; conditions: Mycobacterium tuberculosis
[2] = system: in vitro grown Mycobacteria (M. tuberculosis); test: QUM: Quantification of in vitro grown Mycobacteria (in vitro growth fluorescence assay); type: cell-based; conditions: Mycobacterium tuberculosis; MIC, 80% bacterial growth inhibition; in vitro growth; read-out: QUM
In short: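 Mycobacterium tuberculosis grown in vitro was quantified by fluorescence across compound dose responses. MIC is defined as the minimum concentration producing 80% growth inhibition.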

[3] = system: Mycobacterium tuberculosis H37Rv; test: Kinetics of inhibition and bactericidal activity (CFU plating); type: cell-based; conditions: for colony forming unit (CFU) number (bactericidal activity): after incubation with various concentrations; for growth inhibition: reached around the same time as PA-824, 14 day period
Description: Mycobacterium tuberculosis H37Rv was incubated at an initial inoculum of 2×10^6 bacteria/ml in Middlebrook 7H9 media containing an increasing concentration of representative compound 47 or 54. Culture samples were collected over a 14 day period. Serial dilutions of the bacterial suspension were performed and plated on 7H 10 medium. Colonies were counted for the different dilutions after 3 weeks incubation at 37° C. under 5% CO2 and compared to that obtained for the DMSO negative and PA-824 positive controls. PA-824 (Stover et al., 2000) is a TB Alliance small chemical compound currently in phase II clinical trials for the treatment of tuberculosis. PA-824 possibly acts via generation of radicals having non-specific toxic effects.

[4] = system: M. tuberculosis inside the host macrophage; test: QIM: Quantification of Intracellular Mycobacteria (intracellular growth assay, phenotypic cell-based); conditions: Mycobacterium tuberculosis; MIC, 80% bacterial growth inhibition; intracellular growth; read-out: QIM
In short: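 Dose-response testing of intracellular mycobacterial replication in infected macrophages, a cell-based screening format; MIC is defined as the lowest concentration achieving 80% inhibition of bacterial growth.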

Row | SMILES | CFU in the spleen (M. tuberculosis H37Rv; 50 mg/kg orally) | reduction of CFU in the lungs compared to untreated mice (M. tuberculosis H37Rv; 50 mg/kg orally) [log CFU] | MIC80 [1] [µM] | CFU in the lungs (M. tuberculosis H37Rv; 25 mg/kg) | CFU in the spleen (M. tuberculosis H37Rv; 25 mg/kg) | MIC [2] [µM] | colony forming unit (CFU) number (bactericidal activity) [3] | growth inhibition [3] [%] | MIC [4] [µM]
1 | CCc1nc2cc(Cl)ccn2c1C(=O)NCc1ccc(N2CCN(c3ccc(F)cc3)CC2)cc1 [Compound 177, 7-Chloro-2-ethyl-N-(4-(4-(4-fluorophenyl)piperazin-1-yl)benzyl)imidazo[1,2-a]pyridine-3-carboxamide trihydrochloride] | No CFU were detected | ~2 | – | – | – | – | – | – | –
2 | NNC(=O)c1ccncc1 [INH, Isoniazid, reference compound] | – | – | 1.25 (≈ 0.171 µg/mL) | No CFU were recovered | No CFU were recovered | – | – | – | –
3 | CCc1nc2ccccn2c1C(=O)NCc1ccc(-c2ccccc2)cc1 [Compound 47, N-(Biphenyl-4-ylmethyl)-2-ethylimidazo[1,2-a]pyridine-3-carboxamide] | – | – | 1.25 (≈ 0.444 µg/mL) | – | – | < 1 | decrease | 100 | < 1
4 | CCc1nc2ccccn2c1C(=O)NCc1ccc(Oc2ccccc2)cc1 [Compound 54, 2-Ethyl-N-(4-phenoxybenzyl)imidazo[1,2-a]pyridine-3-carboxamide] | – | – | 0.625 (≈ 0.232 µg/mL) | – | – | < 1 | decrease | 100 | < 1
5 | COc1c(N2C[C@@H]3CCCN[C@@H]3C2)c(F)cc2c(=O)c(C(=O)O)cn(C3CC3)c12 [MFX, moxifloxacin, reference compound] | – | – | 1.25 (≈ 0.502 µg/mL) | – | – | – | – | – | –
6 | CCc1nc2ccc(Cl)cn2c1C(=O)NCc1ccc(Oc2ccc(OC(F)(F)F)cc2)cc1 [Compound 185, 6-Chloro-2-ethyl-N-(4-(4-(trifluoromethoxy)phenoxy)benzyl)imidazo[1,2-a]pyridine-3-carboxamide] | No CFU were detected | ~2 | – | – | – | < 1 | – | – | < 1
